In patent US8993585B2, “Cyclic amine substituted pyrimidinediamines as PKC inhibitors” (Rigel Pharmaceuticals, Inc., priority 2007, dated 2015):

Tested on: Human primary T cells
Assay: IL-2 ELISA, Human Primary T Cell, Anti-CD3+CD28+ (Example 3)
Assay type: cell-based
Conditions: anti-CD3+CD28 stimulation
Experimental: Human primary T cell isolation and culture: Human primary T cells were prepared as follows. […] The cells at the serum:ficoll interface were recovered and washed twice with 5 volumes of PBS. […] The primary T-cells were then washed twice with PBS to remove the IL-2.
Primary T cell stimulation and IL2 ELISA: Human primary T cells (100,000 cells per well) were pre-incubated with or without test compound in Yssel's medium for 1 hr at 37° C. Cells were then stimulated by transferring them to round-bottom 96-well plates pre-coated with 1 ug/ml αCD3 and 5 μg/ml αCD28. For counter assay, cells were instead stimulated by adding 8× stock solutions of PMA and ionomycin in Yssels (for final concentrations of 0.5 ng/ml PMA and 0.1 uM ionomycin, both from Calbiochem).

| SMILES | IC50 (Homo sapiens, T-cell, 24 h) [µM] | IC50 (24 hours) [µM] |
| --- | --- | --- |
| CN1C(C)(C)CC(Nc2nc(Nc3cccc(C(N)=O)c3)ncc2F)CC1(C)C [Compound I-24] | – | 1.52 |
| Cc1cnc(Nc2cccc(S(N)(=O)=O)c2)nc1NC1CC(C)(C)N(C)C(C)(C)C1 [Compound I-14] | – | 9.84 |
| CN1C(C)(C)CC(Nc2nc(Nc3ccc(F)c(C#N)c3)ncc2C(F)(F)F)CC1(C)C [Compound I-170] | – | 2.65 |
| COc1cc(C)c(Nc2ncc(F)c(NC3CC(C)(C)NC(C)(C)C3)n2)cc1OC [Compound I-379] | – | 34.5 |
| CCOC(=O)c1cnc(Nc2ccc(N3CCN(C)CC3)c(C(F)(F)F)c2)nc1NC1CC(C)(C)N(C)C(C)(C)C1 [Compound I-82] | – | 3.21 |
| CN1C(C)(C)CC(Nc2nc(Nc3cc(F)c(F)c(F)c3)ncc2F)CC1(C)C [Compound I-347] | – | 0.617 |
| CN1C(C)(C)CC(Nc2nc(Nc3ccc(-n4cccc4)c(C#N)c3)ncc2C#N)CC1(C)C [Compound I-206] | – | 1.03 |
| CN1C(C)(C)CC(Nc2nc(Nc3ccc(-n4nnnc4-c4ccco4)cc3)ncc2F)CC1(C)C [Compound I-458] | – | 0.79 |
| COc1cc(F)cc(Nc2ncc(F)c(NC3CC(C)(C)N(C)C(C)(C)C3)n2)c1 [Compound I-443] | – | 0.4 |
| CN1C(C)(C)CC(Nc2nc(Nc3ccc(-n4cnnn4)cc3)ncc2F)CC1(C)C [Compound I-400] | – | 1.69 |
| CN1C(C)(C)CC(Nc2nc(Nc3cc(OCC(F)(F)F)cc(OCC(F)(F)F)c3)ncc2C(N)=O)CC1(C)C [Compound I-406] | – | 0.48 |
| COc1cc(Nc2ncc(C#N)c(NC3CC(C)(C)N(C)C(C)(C)C3)n2)cc(-n2cnnn2)c1 [Compound I-404] | – | 0.17 |
| CN1C(C)(C)CC(N(Cc2ccccc2)c2nc(Nc3ccc(N4CCN(S(C)(=O)=O)CC4)c(C(F)(F)F)c3)ncc2F)CC1(C)C [Compound I-310] | 1.41 | – |
| COc1cc(Nc2ncc(F)c(N(Cc3ccc(-c4ccccc4)cc3)C3CC(C)(C)N(C)C(C)(C)C3)n2)cc(OC)c1 [Compound I-317] | 2.42 | – |
| CN1C(C)(C)CC(Nc2nc(Nc3ccc(OC(F)(F)F)c(-c4ccncc4)c3)ncc2F)CC1(C)C [Compound I-207] | – | 0.402 |
| COc1cc(Nc2ncc(F)c(NC3CC(C)(C)N(C)C3(C)C)n2)cc(OC)c1OC (stereo not shown) [Compound I-282, 5-Fluoro-N2-(3,4,5-trimethoxy)phenyl-N4-(1,2,2,5,5-pentamethylpyrrolidin-3-yl)-2,4-pyrimidinediamine] | – | 15.3 |
| CN1C(C)(C)CC(Nc2nc(Nc3ccc(C(N)=O)cc3)ncc2F)CC1(C)C [Compound I-23] | – | 1.68 |
| COc1cc(Nc2ncc(F)c(NC3CC(C)(C)NC(C)(C)C3)n2)cc(OCCN2CCCC2)c1 [Compound I-435] | 0.55 | – |
| CN1C(C)(C)CC(Nc2nc(Nc3ccc(Br)c(F)c3)ncc2F)CC1(C)C [Compound I-110] | – | 0.491 |

Further lines, results first:

| IC50 (Homo sapiens, T-cell, 24 h) [µM] | IC50 (24 hours) [µM] | SMILES |
| --- | --- | --- |
| 0.55 | – | CN1C(=O)C(F)(F)Oc2cc(Nc3ncc(Cl)c(NC4CC(C)(C)N(C)C(C)(C)C4)n3)ccc21 [II-28] |
| 0.258 | – | CCN1C(=O)C(C)(C)Oc2cc(Nc3ncc(F)c(NC4CC(C)(C)N(C)C(C)(C)C4)n3)cnc21 [II-55] |
| 0.168 | – | CC(C)N1C(=O)COc2cc(Nc3ncc(F)c(NC4CC(C)(C)N(C)C(C)(C)C4)n3)ccc21 [II-61] |
| 4.51 | – | CCN(CC)C1CCC(Nc2nc(Nc3cccc(C#N)c3)ncc2F)CC1 (stereo not shown) [IV-6, N2-(3-Cyano)phenyl-N4-(4-diethylamino)cyclohexyl-5-fluoro-2,4-pyrimidinediamine] |
| 0.298 | – | CC(C)N1C(=O)C(C)(C)Oc2cc(Nc3ncc(F)c(NC4CC(C)(C)N(C)C(C)(C)C4)n3)ccc21 [II-44] |
| 0.54 | – | C#Cc1cnc(Nc2ccc3c(c2)OC(C)(C)C(=O)N3CC)nc1NC1CC(C)(C)N(C)C(C)(C)C1 [II-152] |
| 2.07 | – | CN1C(C)(C)CC(Nc2nc(Nc3cnc4c(c3)OC(F)(F)C(=O)N4)ncc2F)CC1(C)C [II-25] |
| – | 0.261 | CN1C(=O)C2(CCC2)Oc2cc(Nc3ncc(F)c(NC4CC(C)(C)N(C)C(C)(C)C4)n3)ccc21 [II-68] |
| 12.3 | – | Cc1nc2ccc(Nc3ncc(F)c(NC4CC(C)(C)N(C)C(C)(C)C4)n3)cc2[nH]1 [II-9] |
